According to patent US7932262B2 (Novartis AG, priority 2006, dated 2011):

System: PC-3 cells
Experiment: Cell Proliferation Assay (Cell Titer Glo), PC-3 cell line
Format: cell-based
Conditions: Homo sapiens, PC-3, PC3 cells; read-out: CPEC50 PC3
Method: IV. Cell Proliferation Assay Protocol:
A2780, PC-3, or PC3MM cells were seeded at 1000 cells/well in 100 μL/well (10.000 cells/mL) growth media in 96-well plates. Cells were allowed to adhere to the bottom of plates for 3-5 hours in a 37° C. 5% CO2 incubator. Compounds were dissolved in DMSO and then transferred to the cell plates. The cells were incubated with the compounds for 3 days in a 37° C. 5% CO2 incubator. The growth medium containing the compounds was then removed from the cells and fresh medium was added, followed by 100 μL of Cell Titer Glo assay reagent (Promega). This mixture was shaken for 1 minute and then incubated without shaking for 10 minutes. Activity determinations for the compounds were made by detection on a Trilux Instrument.
V. Cell Proliferation Assay Protocol: PC-3 Cell Line
PC-3 cells were seeded at 1000 cells/well in 100 μL/well (10.000 cells/mL) along with growth media into black-walled, clear bottom 96-well plates. The cells were allowed to adhere to the bottom of the plate for 3-5 hours in a 37° C. 5% CO2 incubator.
Test compounds were diluted to 500× in DMSO. The DMSO solutions of six of the compounds were transferred to the cells in the 96 well round bottom plate, column 2, row B-F. A 1:3 serial dilution of each compound was carried out. The serial dilution comprised adding 20 μL of DMSO to the wells containing the compounds and doing a 1:3 dilution across the plate from columns 2-10. Column 11 contained only DMSO. The serial dilution was carried out using a BioMek 2000 protocol “CP Serial Dilution using 250 μL tips” or “Proliferation Compound” (if using 20 μL tips).
To a 96 deep well block, columns 2-11 rows B-F, was transferred 500 μL of growth medium. Using the FX protocol “HH_CellAssay—2 μL to 500 μL”, 2 μL of compound from each cell of the compound plate was transferred to the corresponding cell in the 96 deep well block containing 500 μL of growth medium. The instrument was programmed to dilute the compound in growth medium and then transfer 100 μL of that mixture to cell plates containing cells. The cell plates, to which test compounds had been added, were incubated for 3 days at 37° C. Following the incubation, the medium was removed and replaced with fresh medium. Cell Titer Glo (100 μL) was added to each well and the plate was shaken for 1 minute and then incubated without shaking for 10 minutes. The plates were then read using a Trilux instrument.

Compound	EC50 [µM]
CCN1CCC(Oc2ccc3cnc(Nc4cc(OC)cc(OC)c4)nc3c2)CC1 [Compound 958, N-(3,5-dimethoxyphenyl)-7-(1-ethylpiperidin-4-yloxy)quinazolin-2-amine]	< 5
CC(C)NS(=O)(=O)c1ccc(Nc2ncc3ccc(OC4CCN(C(C)C)CC4)cc3n2)cc1 [Compound 961, N-isopropyl-4-(7-(1-isopropylpiperidin-4-yloxy)quinazolin-2-ylamino)benzenesulfonamide]	< 5
CNC(=O)Cc1ccc(Nc2ncc3cccc(OC4CCN(C(C)C)CC4)c3n2)cc1 [Compound 966, 2-(4-(8-(1-isopropylpiperidin-4-yloxy)quinazolin-2-ylamino)phenyl)-N-methylacetamide]	< 5
CC(C)N1CCC(Oc2cccc3cnc(Nc4ccc(N5CCOCC5)cc4)nc23)CC1 [Compound 968, 8-(1-isopropylpiperidin-4-yloxy)-N-(4-morpholinophenyl)quinazolin-2-amine]	< 5
CC(=O)Nc1ccc(Nc2ncc3cccc(OC4CCN(C(C)C)CC4)c3n2)cc1 [Compound 969]	< 5
Fc1ccc(Nc2ncc3ccc(OC4CCNCC4)cc3n2)cc1 [Compound 988, N-(4-fluorophenyl)-7-(piperidin-4-yloxy)quinazolin-2-amine]	< 5
CC(C)N1CCC(Oc2ccc3cnc(Nc4ccc(F)cc4)nc3c2)CC1 [Compound 989, N-(4-fluorophenyl)-7-(1-isopropylpiperidin-4-yloxy)quinazolin-2-amine]	5 to 10
CNS(=O)(=O)Cc1ccc(Nc2ncc3ccc(OC4CCN(C(C)C)CC4)cc3n2)cc1 [Compound 990, 1-(4-(7-(1-isopropylpiperidin-4-yloxy)quinazolin-2-ylamino)phenyl)-N-methylmethanesulfonamide]	< 5
CC(C)N1CCC(Oc2cccc3cnc(Nc4ccc(NC(=O)N5CCCC5)cc4)nc23)CC1 [Compound 992, N-(4-(8-(1-isopropylpiperidin-4-yloxy)quinazolin-2-ylamino)phenyl)pyrrolidine-1-carboxamide]	< 5
CNC(=O)Cc1cccc(NC(=O)Cc2cccc(Nc3ncc4cccc(OC5CCN(C(C)C)CC5)c4n3)c2)c1 [Compound 1004, 2-(3-(8-(1-isopropylpiperidin-4-yloxy)quinazolin-2-ylamino)phenyl)-N-(3-(2-(methylamino)-2-oxoethyl)phenyl)acetamide]	< 5
CC(C)NC(=O)Cc1cccc(Nc2ncc3cccc(OC4CCN(C(C)C)CC4)c3n2)c1 [Compound 1005, N-isopropyl-2-(3-(8-(1-isopropylpiperidin-4-yloxy)quinazolin-2-ylamino)phenyl)acetamide]	< 5
CC(C)N1CCC(Oc2cccc3cnc(Nc4cccc(N5CCOCC5)c4)nc23)CC1 [Compound 1006, 8-(1-isopropylpiperidin-4-yloxy)-N-(3-morpholinophenyl)quinazolin-2-amine]	5 to 10
CC(C)N1CCC(Oc2cccc3cnc(Nc4ccc(F)cc4)nc23)CC1 [Compound 1009, N-(4-fluorophenyl)-8-(1-isopropylpiperidin-4-yloxy)quinazolin-2-amine]	5 to 10
CC(C)N1CCC(Oc2ccc3cnc(Nc4ccc(N)c(Cl)c4)nc3c2)CC1 [Compound 1013, 3-chloro-N1-(7-(1-isopropylpiperidin-4-yloxy)quinazolin-2-yl)benzene-1,4-diamine]	5 to 10
CC(=O)Nc1ccc(Nc2ncc3ccc(OC4CCNCC4)cc3n2)cc1C [Compound 1014, N-(2-methyl-4-(7-(piperidin-4-yloxy)quinazolin-2-ylamino)phenyl)acetamide]	< 5
C#Cc1cc(OC2CCN(C(C)C)CC2)c2nc(Nc3ccc(S(N)(=O)=O)cc3)ncc2c1 [Compound 1015, 4-(6-ethynyl-8-(1-isopropylpiperidin-4-yloxy)quinazolin-2-ylamino)benzenesulfonamide]	< 5

The next lines start with the values.

EC50 [µM]	Compound
< 5	CC(C)N1CCC(Oc2ccc3cnc(Nc4ccc(Cl)cc4)nc3c2)CC1 [Compound 959, N-(4-chlorophenyl)-7-(1-isopropylpiperidin-4-yloxy)quinazolin-2-amine]
< 5	CC(C)NC(=O)Cc1ccc(Nc2ncc3cccc(OC4CCN(C(C)C)CC4)c3n2)cc1 [Compound 967, N-isopropyl-2-(4-(8-(1-isopropylpiperidin-4-yloxy)quinazolin-2-ylamino)phenyl)acetamide]
< 5	CC(C)N1CCC(Oc2cccc3cnc(Nc4ccc(CC(N)=O)cc4)nc23)CC1 [Compound 970, 2-(4-(8-(1-isopropylpiperidin-4-yloxy)quinazolin-2-ylamino)phenyl)acetamide]
5 to 10	CC(C)N1CCC(Oc2cccc3cnc(Nc4cccc(CC(N)=O)c4)nc23)CC1 [Compound 1002, 2-(3-(8-(1-isopropylpiperidin-4-yloxy)quinazolin-2-ylamino)phenyl)acetamide]
< 5	CNC(=O)Cc1cccc(Nc2ncc3cccc(OC4CCN(C(C)C)CC4)c3n2)c1 [Compound 1003, 2-(3-(8-(1-isopropylpiperidin-4-yloxy)quinazolin-2-ylamino)phenyl)-N-methylacetamide]
< 5	CC(=O)Nc1cccc(Nc2ncc3cccc(OC4CCN(C(C)C)CC4)c3n2)c1 [Compound 1007, N-(3-(8-(1-isopropylpiperidin-4-yloxy)quinazolin-2-ylamino)phenyl)acetamide]
< 5	CNS(=O)(=O)Cc1ccc(Nc2ncc3cccc(OC4CCN(C(C)C)CC4)c3n2)cc1 [Compound 1008, 1-(4-(8-(1-isopropylpiperidin-4-yloxy)quinazolin-2-ylamino)phenyl)-N-methylmethanesulfonamide]
< 5	CC(C)N1CCC(Oc2cccc3cnc(Nc4ccc(Cl)cc4)nc23)CC1 [Compound 1010, N-(4-chlorophenyl)-8-(1-isopropylpiperidin-4-yloxy)quinazolin-2-amine]
< 5	CC(C)N1CCC(Oc2cccc3cnc(Nc4ccc(C(F)(F)F)cc4)nc23)CC1 [Compound 1011, 8-(1-isopropylpiperidin-4-yloxy)-N-(4-(trifluoromethyl)phenyl)quinazolin-2-amine]
